Assay results from ChEMBL document CHEMBL1201862, “PubChem BioAssay data set” (2004).
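Compound exposure: 48 hours, 5 concentrations, 96-well plates. GI50 = concentration required for 50% inhibition of growth.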 Active and inactive are the calls of the source. Cut-off read from the data, not from the text of the source: active = GI50 up to about 1.1 µM and inactive = higher.

What was measured:
Test in all cases: inhibition of tumour cell growth, NCI panel, 48 h
M14 = test system: M14
PC-3 = test system: PC-3
K562 = test system: K562
HCT-15 = test system: HCT-15
HT-29 = test system: HT-29
HL-60 = test system: HL-60
OVCAR-8 = test system: OVCAR-8
MDA-N = test system: MDA-N
NCI-H23 = test system: NCI-H23
UACC-257 = test system: UACC-257
SK-MEL-28 = test system: SK-MEL-28
MOLT-4 = test system: MOLT-4
TK-10 = test system: TK-10
OVCAR-5 = test system: OVCAR-5
Hs-578T = test system: Hs-578T
UACC-62 = test system: UACC-62
SK-OV-3 = test system: SK-OV-3
SK-MEL-5 = test system: SK-MEL-5
NCI-H226 = test system: NCI-H226
COLO 205 = test system: COLO 205

Row | SMILES | GI50 (M14) | GI50 (PC-3) | GI50 (K562) | GI50 (HCT-15) [µM] | GI50 (HT-29) | GI50 (HL-60) | GI50 (OVCAR-8) | GI50 (MDA-N) | GI50 (NCI-H23) | GI50 (UACC-257) | GI50 (SK-MEL-28) | GI50 (MOLT-4) | GI50 (TK-10) | GI50 (OVCAR-5) | GI50 (Hs-578T) | GI50 (UACC-62) | GI50 (SK-OV-3) | GI50 (SK-MEL-5) | GI50 (NCI-H226) | GI50 (COLO 205)
1 | O=C(O)/C(=C/c1ccccc1)c1ccccc1 | > 100 µM (inactive) | > 100 µM (inactive) | > 100 µM (inactive) | > 100 | > 100 µM (inactive) | > 100 µM (inactive) | > 100 µM (inactive) | > 100 µM (inactive) | > 100 µM (inactive) | > 100 µM (inactive) | > 100 µM (inactive) | > 100 µM (inactive) | > 100 µM (inactive) | > 100 µM (inactive) | > 100 µM (inactive) | > 100 µM (inactive) | > 100 µM (inactive) | > 100 µM (inactive) |  | 
2 | O=C(NC(Cc1c[nH]c2ccccc12)C(=O)O)/C(=C/c1ccccc1O)NC(=O)c1ccccc1 (configuration not stated) | > 100 µM (inactive) |  | > 100 µM (inactive) | 25.6 | > 100 µM (inactive) | > 100 µM (inactive) | 15.5 µM (inactive) | 7.05 µM (inactive) | 51.6 µM (inactive) | > 100 µM (inactive) | > 100 µM (inactive) | > 100 µM (inactive) | 37.7 µM (inactive) | > 100 µM (inactive) | 24.6 µM (inactive) | 24.2 µM (inactive) | 22.3 µM (inactive) | > 100 µM (inactive) | 16.3 µM (inactive) | > 100 µM (inactive)
3 | COC(=O)c1ccc(CCC2=CC(=O)C=CC2=O)cc1 | 15.1 µM (inactive) | 12.1 µM (inactive) | 2.37 µM (inactive) | 5.52 | 23.1 µM (inactive) | 0.728 µM (active) | 17.4 µM (inactive) | 12.5 µM (inactive) | 17.9 µM (inactive) | 9.08 µM (inactive) | 9.42 µM (inactive) | 1.63 µM (inactive) | 19 µM (inactive) | 18.2 µM (inactive) | 24.8 µM (inactive) | 13.7 µM (inactive) |  | 12.9 µM (inactive) | 16.7 µM (inactive) | 7.03 µM (inactive)
4 | CN(/N=C/C=N/N(C)C1=NCCCN1)C1=NCCCN1 | > 100 µM (inactive) | > 100 µM (inactive) | > 100 µM (inactive) | > 100 | > 100 µM (inactive) |  | > 100 µM (inactive) | > 100 µM (inactive) | > 100 µM (inactive) | > 100 µM (inactive) | > 100 µM (inactive) | > 100 µM (inactive) | > 100 µM (inactive) | > 100 µM (inactive) | > 100 µM (inactive) | > 100 µM (inactive) | > 100 µM (inactive) | > 100 µM (inactive) | > 100 µM (inactive) | > 100 µM (inactive)
5 | COc1cc(C23OCC(Cc4cc5c(cc42)OCO5)C3CO)cc(OC)c1OC (configuration not stated) | 3.64 µM (inactive) | 1.85 µM (inactive) | 3.89 µM (inactive) | 0.538 | 5.64 µM (inactive) | 2.76 µM (inactive) | 4.14 µM (inactive) | 0.402 µM (active) | 3.45 µM (inactive) | > 100 µM (inactive) | > 100 µM (inactive) | 13.2 µM (inactive) | > 24.4 µM (inactive) | 6.81 µM (inactive) | 18.5 µM (inactive) |  | 3.19 µM (inactive) | 6.7 µM (inactive) | 3.85 µM (inactive) | 2.55 µM (inactive)
6 | O=[N+]([O-])c1ccc(NN=C2CN3CCN(C2)c2ccccc23)c([N+](=O)[O-])c1 | > 100 µM (inactive) | > 100 µM (inactive) | > 100 µM (inactive) | > 100 | > 100 µM (inactive) |  | > 100 µM (inactive) | > 100 µM (inactive) | > 100 µM (inactive) | > 100 µM (inactive) | > 100 µM (inactive) | > 100 µM (inactive) | > 100 µM (inactive) | > 100 µM (inactive) | > 100 µM (inactive) | > 100 µM (inactive) | > 100 µM (inactive) | > 100 µM (inactive) |  | > 100 µM (inactive)
7 | O=P(O)(O)C(N=C(Nc1ccccc1)Nc1ccccc1)P(=O)(O)O | > 100 µM (inactive) | > 100 µM (inactive) |  | > 100 | > 100 µM (inactive) |  | > 100 µM (inactive) | > 100 µM (inactive) | > 100 µM (inactive) | > 100 µM (inactive) |  |  | > 100 µM (inactive) | > 100 µM (inactive) | > 100 µM (inactive) | > 100 µM (inactive) | > 100 µM (inactive) | > 100 µM (inactive) | > 100 µM (inactive) | > 100 µM (inactive)
8 | C=CCSC1=N/C(=C\c2ccc(Cl)cc2)C(=O)N1CC=C | 66.2 µM (inactive) | 20 µM (inactive) | 29.5 µM (inactive) | 28.2 | 30.5 µM (inactive) | 9.35 µM (inactive) | 47.2 µM (inactive) | 32.7 µM (inactive) | 24.6 µM (inactive) | 26.4 µM (inactive) | 50.2 µM (inactive) |  | 55.7 µM (inactive) | 63.8 µM (inactive) | 68.7 µM (inactive) | 30.2 µM (inactive) | 42.8 µM (inactive) | 16.1 µM (inactive) |  | 33.3 µM (inactive)
9 | COc1ccc2c3c1O[C@H]1C(OC)C=CC4C(C2)N(Cc2cccs2)CCC341 (some centres not stated) | 70.6 µM (inactive) |  | 51.6 µM (inactive) | 55.2 | 69.7 µM (inactive) | 24 µM (inactive) | 77.4 µM (inactive) | 60 µM (inactive) | 38.8 µM (inactive) | 44.4 µM (inactive) |  | > 100 µM (inactive) | 92.5 µM (inactive) | > 100 µM (inactive) | > 100 µM (inactive) | > 10 µM (inactive) | > 100 µM (inactive) |  |  | 
10 | CCCCSC1=N/C(=C\c2ccc(N(C)C)cc2)C(Cl)=N1 | > 100 µM (inactive) | 76.6 µM (inactive) | > 100 µM (inactive) | > 100 | > 100 µM (inactive) |  | > 100 µM (inactive) | > 100 µM (inactive) | > 100 µM (inactive) | > 100 µM (inactive) | > 100 µM (inactive) | > 100 µM (inactive) | > 100 µM (inactive) | > 100 µM (inactive) | > 100 µM (inactive) | 94.4 µM (inactive) | > 100 µM (inactive) |  | > 100 µM (inactive) | > 100 µM (inactive)
11 | COc1ccccc1C(=O)N(C)c1ccc(Cl)c(C(=O)OC(C)C)c1 | 68.9 µM (inactive) | 31.8 µM (inactive) |  | 39.5 | > 100 µM (inactive) |  | > 100 µM (inactive) | 40.8 µM (inactive) | 49.2 µM (inactive) | 23.1 µM (inactive) | 49.7 µM (inactive) | 39.7 µM (inactive) | 34 µM (inactive) | > 100 µM (inactive) | > 100 µM (inactive) | 48.8 µM (inactive) | 45.5 µM (inactive) | 22.8 µM (inactive) | > 100 µM (inactive) | 42.9 µM (inactive)
12 | CC1(CC(=O)OC(C#C[Si](C)(C)C)Cc2ccccc2)OCCO1 (configuration not stated) | > 100 µM (inactive) | > 100 µM (inactive) |  | > 100 | > 100 µM (inactive) | > 100 µM (inactive) | > 100 µM (inactive) | > 100 µM (inactive) | > 100 µM (inactive) | > 100 µM (inactive) | > 100 µM (inactive) | > 100 µM (inactive) | > 100 µM (inactive) | > 100 µM (inactive) | > 100 µM (inactive) | > 100 µM (inactive) | > 100 µM (inactive) | > 100 µM (inactive) | > 100 µM (inactive) | > 100 µM (inactive)
13 | O=C1C2C(C(=O)N1c1ccccc1)C1(c3ccccc3)CCC2(C(=O)c2ccccc2)O1 (configuration not stated) | > 10 µM (inactive) | > 10 µM (inactive) |  | > 10 | > 10 µM (inactive) | > 10 µM (inactive) | > 10 µM (inactive) | > 10 µM (inactive) | > 10 µM (inactive) | > 10 µM (inactive) | > 10 µM (inactive) | 9.82 µM (inactive) | > 10 µM (inactive) | > 10 µM (inactive) | > 10 µM (inactive) | > 10 µM (inactive) | > 10 µM (inactive) | > 10 µM (inactive) |  | > 10 µM (inactive)
14 | COc1ccc2c(c1)-c1c(c3ccccc3n1CCN1CCOCC1)CC2 | 35 µM (inactive) | 14.8 µM (inactive) | 15.6 µM (inactive) | 25.9 | 13.1 µM (inactive) |  | 16 µM (inactive) | 36.7 µM (inactive) | 21.7 µM (inactive) | 36.7 µM (inactive) | 55.1 µM (inactive) | 13 µM (inactive) | 0.0363 µM (active) | 35.2 µM (inactive) | 13.5 µM (inactive) | 18.8 µM (inactive) | 53.1 µM (inactive) | 14.5 µM (inactive) | 11.7 µM (inactive) | 16 µM (inactive)
15 | CCCOC(=O)NC(C)C(=O)NC(CCC(=O)NC(CCCC(N)C(=O)O)C(=O)NC(C)C(=O)O)C(=O)O (configuration not stated) | 18.3 µM (inactive) | 23.9 µM (inactive) |  | 18.1 | 19.5 µM (inactive) | 24.8 µM (inactive) | 17.9 µM (inactive) | 21.1 µM (inactive) | > 100 µM (inactive) | > 10 µM (inactive) | 19.4 µM (inactive) | 23 µM (inactive) | 69.8 µM (inactive) | 41.9 µM (inactive) | 15.7 µM (inactive) | 18.6 µM (inactive) |  | 15.7 µM (inactive) |  | 27.2 µM (inactive)
16 | O=C1/C(=C/c2cccc3ccccc23)CCc2ccc([N+](=O)[O-])cc21 | 24.4 µM (inactive) | 24.5 µM (inactive) | 7.16 µM (inactive) | 17.9 |  | 8.83 µM (inactive) | 37.3 µM (inactive) | 8.81 µM (inactive) | 67.5 µM (inactive) |  | 16.6 µM (inactive) | > 100 µM (inactive) | 27.2 µM (inactive) | > 100 µM (inactive) | 9.57 µM (inactive) | 13.3 µM (inactive) | 21.6 µM (inactive) |  | 27.6 µM (inactive) | 34 µM (inactive)
